| Structure (SMILES) | melting point [°C] |
| --- | --- |
| CCc1onc(-c2ccc(Cl)cc2)c1CCC(=O)O | 164 to 165 |
| Brc1c(OCc2ccc3ccccc3n2)ccc2ccccc12 | 130 to 132 |
| CN(C)C=CC(=O)c1cc(Cl)ccc1Cl | 83 to 85 |
| CCOC(=O)C(OCc1ccccc1)C(=O)c1cc(Cl)ccc1OCc1ccccc1 (configuration not stated) | 64 to 65 |
| CC1CCCC=C1c1ccc(C(=O)N2Cc3cccn3Cc3ccccc32)cc1 (configuration not stated) | 108 to 109 |
| CC1=C(C(=O)OC(C)(C)C)C(c2cc(Br)ccc2F)C(C(=O)OC(C)(C)C)=C(C)N1 | 173 to 174 |
| CCOC(=O)CCCOc1cccc2c1SCCC2 | 31 |
| CC(C)(C)OC(=O)c1ncn2c1CN=C(c1ccccc1)c1cc(Br)ccc1-2 | 222 to 223 |
| CCCCN1C(=O)CN2C(=O)CN(c3ccc(C(C)C)cc3Br)c3nc(C)nc1c32 | 207 to 208 |
| CCCn1c(=O)c2[nH]c(CC34CC5CC(CC(C5)C3)C4)nc2n(CCC)c1=O | 178 to 180 |
| O=c1[nH]c(=O)n(CCCCN2CCC(OC(c3ccccc3)c3ccccc3)CC2)c2ccc([N+](=O)[O-])cc12 | 211 to 213 |
| O=C1NCC(CN2CCCCC2)c2c[nH]c3cccc1c23 (configuration not stated) | 119 to 122 |
| N#CCOC(=O)c1cccnc1SCC#N | 140 to 143 |
| CSc1c(SC)c(OC(C)=O)c2cc(Cl)ccc2c1OC(C)=O | 113 to 114 |
| Cc1ccn2c(C)c(-c3ccc4sc(=O)n(C)c4c3)nc2c1 | 204 to 206 |
| Cn1nc(C(=O)O)nc1NCCCOc1cccc(CN2CCCCC2)c1 | 130 |
| O=c1[nH]c2cccnc2n1-c1ccccc1F | 195 |
| COc1cccc(C23CCC(=O)C(C2)NC3=O)c1 (configuration not stated) | 138 to 139 |
| CC(=O)OCC1OC(Oc2ccc(N)cc2)C(OC(C)=O)C(OC(C)=O)C1OC(C)=O (configuration not stated) | 130 to 133 |
| C=CCN(CC=C)c1nc(NC(=O)c2ccco2)n2oc(=O)nc2n1 | 159 to 162 |
| CN1CCC(O)(c2ccccc2N)CC1 | 135 to 136 |
| O=c1[nH]c(=O)n2c3c1cnn3C(c1cccc(C(F)(F)F)c1)CC2 (configuration not stated) | 297 to 300 |
| Cc1cc([N+](=O)[O-])c(Cl)c([N+](=O)[O-])c1C(=O)O | 189 to 192 |
| COc1cc(Cl)c(N)cc1C(=O)NCC1CCCO1 (configuration not stated) | 109 to 110 |
| CCSC(=O)c1c(C(F)(F)F)nc(C(F)F)c(C(=O)OC)c1N | 72 to 74 |
| N=C(Nc1cccc(NC(=O)C=Cc2ccccc2)c1)c1ccccc1 | 115 to 117 |

| Structure (SMILES) | melting point [°C] |
| --- | --- |
| Cc1ccc(N2CN(c3ccccc3)C3=NN=CC3=C2Cl)cc1 | 177 to 179 |
| CCC(CC)N(O)C(=O)Nc1cc(C(F)(F)F)cc(C(F)(F)F)c1 | 115 to 116 |
| CN(C)c1ccc2nc(-c3ccccc3)oc2n1 | 127 to 129 |
| CC(=O)c1sc2sc(-c3ccncc3)c(C)c2c1C | 171 to 173 |
| CC(C)N1CCC(C2c3ccccc3C=Cc3ccccc32)CC1 | 124 to 126 |
| CC12CCC(=O)NC1CCc1cc(-c3cccc([N+](=O)[O-])c3)ccc12 (single isomer, unassigned; (+)) | 223 to 225 |
| CCCC(=O)Nc1n[nH]c2c(N)cc(C)nc12 | 170 to 171 |
| Nc1nc(N)nc(-c2ccc(-c3ccccc3[N+](=O)[O-])cc2)n1 | > 250 |
| CCCCc1nc2cc3ccccc3cc2n1Cc1ccc(C#N)cc1 | 138 |
| CC(C)(C)OC(=O)N(C(=N)NS(=O)(=O)C(F)(F)F)C(=O)OC(C)(C)C | 114 to 115 |
| Clc1cc(-c2nnn[nH]2)nc(Cl)c1Cl | 197 to 198 |
| Cc1c(C(=O)Nc2ccc(N3CCC(N4CCCCC4)CC3)c(C#N)c2)cnn1-c1ccc(Cl)cc1 | 252 |
| CCCOCCOC(=O)C1=C(C)NC(C)=C([N+](=O)[O-])C1c1cccc([N+](=O)[O-])c1 (configuration not stated) | 161 |
| CCNc1nc2c(N)nc3ccccc3c2n1CC(C)(C)O | 233 to 235 |
| CCCCCCCCCCCCCCCCCC(=O)ON1C(C)(C)CC(OC(C)=O)CC1(C)C | 55 to 58 |
| CCOC(=O)c1ccc(-c2cccc(O)c2)cc1 | 76 |
| Cc1cc(Br)cc2c(C(C)C)c[nH]c12 | 170 |
| CN(C)CCCCCC(=O)O | 89 to 91 |
| CC(=O)N(CC(C)O)c1c(C)cccc1C (configuration not stated) | 64 to 67 |
| O=c1[nH]c2ccc(S(=O)CCN3CCC(Cc4cccc(F)c4F)CC3)cc2o1 (configuration not stated) | 188 to 190 |
| c1ccc2c(c1)ncc1nc(C3CCCC3)[nH]c12 | 192 |
| COC1(c2cc(F)cc(Sc3ccc(C(C)ONC(N)=O)cc3)c2)CCOCC1 (configuration not stated) | 84 to 85 |
| O=C(CN1C(=O)C(NC(=O)c2cc3ccccc3[nH]2)C(c2ccccc2)Sc2ccccc21)NCCc1ccccc1 (configuration not stated) | 157 to 163 |
| CCn1nc(C)c(NC(N)=S)c1C | 248 |
| Nc1nc2ccccc2c2c1ncn2CCOCCCc1ccncc1 | 160 to 162 |
| NC1([C@@H]2CCN(c3ccc4c(=O)c(C(=O)O)cn([C@@H]5C[C@@H]5F)c4c3Cl)C2)CC1 | 128 to 130 |

| Structure (SMILES) | melting point [°C] |
| --- | --- |
| C=C1OC(=NOC(C)=O)C(c2ccccc2)C(=O)N1C(C)(C)C(=O)Nc1cc(Cl)cc(Cl)c1 (configuration not stated) | 125 to 127 |
| CC(C)Cn1c(CNC(=O)OC(C)(C)C)c(-c2ccccc2)c2cc(/C=C/C(=O)O)ccc2c1=O | 172 to 173 |
| N#Cc1ccc(O)c(Cc2cc(F)cc(Cc3cc(C#N)ccc3O)c2O)c1 | 222 |
| S=C(Nc1cccc(Cl)c1)N1CCSC1=Nc1cccc(Cl)c1 | 121 to 123 |
| CC1(C)CCC(C)(C)c2cc(O)c(N)cc21 | 225 |
| Cc1cc(C(O)C(=O)c2ccccc2)c(C)c(C)c1C (configuration not stated) | 99 to 101 |
| O=C1CCC(N2Cc3c(OCc4nc(CN5CCOCC5)no4)cccc3C2=O)C(=O)N1 (configuration not stated) | 150 to 152 |
| OC(c1ccccc1)(c1ccc(C(F)(F)F)cc1)c1ncc[nH]1 (configuration not stated) | 174 to 176 |
| NCCN1CCC(NC(=O)c2cc(Cl)c(N)c3c2OCCC3)CC1 | 130 |
| CC1CC(=Cc2ccccc2O)C(=O)O1 (configuration not stated) | 112 to 114 |
| CCOC(=O)c1cn(CC)c2cc(-c3csc(CN(CCOC(C)=O)C(C)=O)n3)c(F)cc2c1=O | 148 to 152 |
| COC(=O)C1=C(C=O)NC(C)=C(P2(=O)OCCCO2)C1c1ccccc1[N+](=O)[O-] (configuration not stated) | 135 to 136 |
| C=C(C)Cc1cc(C=O)cc(OCC)c1O | 85 to 86 |
| C=CCOc1cc(CNc2nc(C)nc(C)c2Cl)ccc1OCc1ccccc1 | 94 to 96 |
| O=C(c1cc(F)ccc1C(F)(F)F)N1CCN(c2ccc(-c3ncc(-c4ccccc4)o3)nn2)CC1 | 122 to 125 |
| Cc1cccc(C)c1N1CCN(c2c(C)cccc2C)C1=N | 188 to 190 |
| COc1ccc(C(=O)C(O)c2ccccc2)cc1 (configuration not stated) | 99 to 101 |
| CCC(=O)N1N=C(c2ccc([N+](=O)[O-])cc2)c2cc3c(cc2CC1C)OCO3 (configuration not stated) | 189 to 190 |
| CCOC(=O)c1ccc(C#CC(O)c2cc(-c3ccccc3)cc3c2C(C)(C)CCC3(C)C)cc1 (configuration not stated) | 121 |
| CC(C)(C)OC(=O)Nc1ccc(C#Cc2ccccc2)cc1N | 177 to 178 |
| O=C1CC(c2ccccc2)(c2ccncc2)Oc2ccccc21 (configuration not stated) | 123 to 130 |
| c1ccc(Cn2nnc3ccc(Cn4ccnc4)cc32)cc1 | 85.4 |
| CCOC(=O)Cc1ccc(-c2nc(COc3ccc(COc4nn(-c5ccccc5)cc4/C=C/c4nc(CC)sc4C)cc3OC)c(C)o2)cc1 | 127 to 128 |
| CC(O)c1ccc2c(c1)ncn2-c1cccc(-c2cccnc2O)c1 (configuration not stated) | 133 to 137 |
| O=C(C1CSC(c2cccnc2)N1)N1CCN(c2ncccn2)CC1 (configuration not stated) | 156 to 159 |
| CS(=O)(=O)Nc1ccc2[nH]c(=O)n(CCCCN3CC=C(c4ccccc4)CC3)c(=O)c2c1 | 193 to 195 |

| Structure (SMILES) | melting point [°C] |
| --- | --- |
| CC1(c2ccc(F)c(S(N)(=O)=O)c2)OCCO1 | 149 to 150 |
| CCn1ncc2c(Cl)c3ccc(OC)cc3nc21 | 95 to 98 |
| Cc1c(C)c(C(=O)CCl)c(C)c(C)c1Cl | 94 to 96 |
| Clc1ccc(-c2nc3cc(Cl)ccc3o2)cc1 | 178 to 183 |
| NNc1ccc(C(=O)O)cn1 | 292 to 293 |
| CC(C)(C)NC(=NC#N)Nc1cc(F)cc(Cl)c1 | 156 to 157 |
| COc1ccnc(CSCCN=C(NC#N)SC)c1 | 91.5 to 92.5 |
| COP(=O)(NNC(C)(C)C)OC | 61 to 68 |
| Cc1cccc(-n2nc(C)cc2-c2ccnc(C#N)c2)c1 | 128 to 130 |
| O=C(Oc1cc(O)ccn1)c1ccccc1 | 124 to 127 |
| CN1CCN(c2cc3nc(C(C)(C)C)sc3cc2NC(=S)N2CCCCC2)CC1 | 202 to 206 |
| CC(C)c1cc(C(C)C)c(NC(=O)CN2CCN(CCSc3nc4ccccc4[nH]3)CC2)c(C(C)C)c1 | 217 to 218 |
| COC(=O)C1C=CCn2c(=O)[nH]c(=O)n21 (configuration not stated) | 210 to 213 |
| COc1ccn2nc(S(=O)(=O)Cl)nc2n1 | 110 to 112 |
| O=C(c1cccc(Oc2ccccc2)c1)c1cccc(Br)n1 | 65 to 66 |
| CN1CCN(S(=O)(=O)c2cccc(NC(=O)c3cnn4c(C(F)(F)F)cc(-c5ccc(Cl)cc5)nc34)c2)CC1 | 195 |
| CN1C(=O)C2C3C=CC(CCC3)C2(c2ccc(Cl)c(Cl)c2)C1=O (configuration not stated) | 110 to 115 |
| COc1ccc(/C=C(\C#N)c2ccccc2Cl)cc1OC1CCCC1 | 94 to 95 |
| CC1CCc2c(O)ccc3c(=O)c(C(=O)O)cn1c23 (configuration not stated) | > 300 |
| CN(CCCNC1=CC(=O)c2sc(C(=O)N3CCOCC3)nc2C1=O)CCCNC1=CC(=O)c2sc(C(=O)N3CCOCC3)nc2C1=O | 207 to 208 |
| O=C(O)c1cc(F)c(F)cc1NC(=O)c1cc(-c2ccc(Cl)cc2)oc1C(F)(F)F | 337 to 340 |
| CCC1(O)CC(=O)OCc2c1cc1n(c2=O)Cc2cc3ccc(F)cc3nc2-1 (configuration not stated) | > 250 |
| CC(=O)N(c1nc2nc(C)cc(C)n2n1)S(=O)(=O)c1c(Cl)cccc1Cl | 219 to 222 |
| S=C1NCC(C2=CCC=CC2)N1 (configuration not stated) | 165 to 167 |
